Measured values taken from ChEMBL document CHEMBL4312017, “Synthesis and discovery of new compounds bearing coumarin scaffold for the treatment of pulmonary fibrosis” (Eur J Med Chem, 2020).
The source made the active and inactive calls. No cut-off for these calls is given here.

Assays:
[1] = Cytotoxicity against rat NRK-49F cells assessed as cell viability at 10 uM incubated for 72 hrs by MTT assay; type: cell-based; conditions: read-out: Activity
NRK-49F [2] = test: Inhibition of TGF-beta-induced collagen accumulation in rat NRK-49F cells at 10 uM incubated for 2 days by PSR staining based microscopic analysis relative to control; type: functional; conditions: 48 h
NIH3T3 = test: Inhibition of TGF-beta-induced […] migration in mouse NIH/3T3 cells at 1 uM incubated for 24 hrs by Transwell assay; type: functional, cell-based
NRK-49F [3] = test: Inhibition of TGF-beta-induced collagen accumulation in rat NRK-49F cells incubated for 2 days by PSR staining based microscopic analysis; type: functional, cell-based; conditions: for IC50: 48 h
Mus musculus [4] = test: Antifibrotic activity against BLM-induced C57BL/6 mouse pulmonary fibrosis model assessed as decrease in destruction alveolar structure at 50 mg/kg, po administered for 28 days and measured on day 14 and 28 by HE staining based fluorescence microscopy; type: functional, organism-based
Mus musculus [5] = test: Antifibrotic activity against BLM-induced C57BL/6 mouse pulmonary fibrosis model assessed as decrease in bronchial epithelial vacuolar degeneration at 50 mg/kg, po administered for 28 days and measured on day 14 and 28 by HE staining based fluorescence microscopy; type: functional, organism-based
Mus musculus [6] = test: Antifibrotic activity against BLM-induced C57BL/6 mouse pulmonary fibrosis model assessed as decrease in bronchiolar epithelial cell shedding at 50 mg/kg, po administered for 28 days and measured on day 14 and 28 by HE staining based fluorescence microscopy; type: functional, organism-based
[7] = Oral bioavailability in Sprague-Dawley rat 10 mg/kg measured upto 24 hrs; type: ADME, organism-based; conditions: in vivo
Mus musculus [8] = test: Antifibrotic activity against BLM-induced C57BL/6 mouse pulmonary fibrosis model assessed as increase in time for reduction of alveoli at 50 mg/kg, po administered for 28 days and measured on day 14 and 28 by HE staining based fluorescence microscopy; type: functional, organism-based
Mus musculus [9] = test: Antifibrotic activity against BLM-induced C57BL/6 mouse pulmonary fibrosis model assessed as decrease in bronchioles inflammatory cell infiltration at 50 mg/kg, po administered for 28 days and measured on day 14 and 28 by HE staining based fluorescence microscopy; type: functional, organism-based
Mus musculus [10] = test: Antifibrotic activity against C57BL/6 mouse pulmonary fibrosis model assessed as reduction in bleomycin-iduced hydroxyproline level at 50 mg/kg, po administered for 28 days and measured on day 14 and 28 by spectrophotometry; type: functional, organism-based
Mus musculus [11] = test: Antifibrotic activity against BLM-induced C57BL/6 mouse pulmonary fibrosis model assessed as decrease in perivascular inflammatory cell infiltration at 50 mg/kg, po administered for 28 days and measured on day 14 and 28 by HE staining based fluorescence microscopy; type: functional, organism-based
Mus musculus [12] = test: Antifibrotic activity against BLM-induced C57BL/6 mouse pulmonary fibrosis model assessed as reduction in total white blood cells in BALF at 50 mg/kg, po administered for 28 days and measured on day 28; type: functional, organism-based
Mus musculus [13] = test: Antifibrotic activity against BLM-induced C57BL/6 mouse pulmonary fibrosis model assessed as reduction in lymphocytes in BALF at 50 mg/kg, po administered for 28 days and measured on day 28; type: functional, organism-based
Mus musculus [14] = test: Antifibrotic activity against BLM-induced C57BL/6 mouse pulmonary fibrosis model assessed as reduction in neutrophils in BALF at 50 mg/kg, po administered for 28 days and measured on day 28; type: functional, organism-based

SMILES	viability at 72 h, 10 µM [1] [%]	inhibition at 10 µM (NRK-49F [2]) [%]	also measured
COc1ccc2c(Oc3ccc(NC(=O)CN4CCN(C)CC4)cc3)cc(=O)oc2c1	95.6	65.4	–
O=C(CN1CCCCC1)Nc1ccc(Nc2cc(=O)oc3ccccc23)cc1F	67.7	11.3	–
COc1ccc2c(Oc3ccc(NC(=O)CN4CCCCC4)cc3)cc(=O)oc2c1	90.4	73.5	–
CN1CCN(CC(=O)Nc2ccc(Oc3cc(=O)oc4ccccc34)cc2)CC1	83.6	24	–
C[C@H]1CCCN(CC(=O)Nc2ccc(Nc3cc(=O)oc4ccccc34)cc2)C1	91.5	80.2	inhibition (NIH3T3): Active; inhibition (NRK-49F [3]): Dose-dependent effect; IC50 (NRK-49F [3]): 3.96 µM
COc1ccc2c(Nc3ccc(NC(=O)CN4CCC[C@H](C)C4)cc3)cc(=O)oc2c1	90.1	72.7	–
CN1CCN(CC(=O)Nc2ccc(Nc3cc(=O)oc4ccccc34)cc2)CC1	87.5	26.8	–
COc1ccc2c(Nc3ccc(NC(=O)CN4CCOCC4)cc3)cc(=O)oc2c1	89.1	72.9	–
O=C(CN1CCCC1)Nc1ccc(Nc2cc(=O)oc3ccc([N+](=O)[O-])cc23)cc1	45.3	17.9	–
C[C@H]1CCCN(CC(=O)Nc2ccc(Oc3cc(=O)oc4ccccc34)cc2)C1	98	75.3	–
CN1CCN(CC(=O)Nc2ccc(Nc3cc(=O)oc4ccccc34)cc2F)CC1	78.1	36.8	–
O=C(CN1CCOCC1)Nc1ccc(Nc2cc(=O)oc3ccccc23)cc1	75.2	41.8	–
COc1ccc2c(Nc3ccc(NC(=O)CN4CCN(C)CC4)cc3)cc(=O)oc2c1	87.2	80.2	inhibition (NIH3T3): Active; inhibition (NRK-49F [3]): Dose-dependent effect; IC50 (NRK-49F [3]): 4.35 µM
C[C@H]1CCCN(CC(=O)Nc2ccc(Nc3cc(=O)oc4ccc([N+](=O)[O-])cc34)cc2)C1	17.8	28.7	–
O=C(CN1CCCCC1)Nc1ccc(Nc2cc(=O)oc3ccc([N+](=O)[O-])cc23)cc1	20.3	15.4	–
O=C(CN1CCOCC1)Nc1ccc(Nc2cc(=O)oc3ccc([N+](=O)[O-])cc23)cc1	23.1	31.7	–
COC(=O)c1ccc2c(c1)NC(=O)/C2=C(\Nc1ccc(N(C)C(=O)CN2CCN(C)CC2)cc1)c1ccccc1 [NINTEDANIB]	40	95.5	Activity (Mus musculus [4]): Active; Activity (Mus musculus [5]): Active; Activity (Mus musculus [6]): Active; bioavailability [7]: 12%; Activity (Mus musculus [8]): Active; Activity (Mus musculus [9]): Active; Activity (Mus musculus [10]): inactive; Activity (Mus musculus [11]): Active; IC50 (NRK-49F [3]): 1.1 µM; Activity (Mus musculus [12]): Active; Activity (Mus musculus [13]): Active; Activity (Mus musculus [14]): Active
CN1CCN(CC(=O)Nc2ccc(Nc3cc(=O)oc4ccc([N+](=O)[O-])cc34)cc2)CC1	32.1	22.3	–
COc1ccc2c(Oc3ccc(NC(=O)CN4CCCC4)cc3)cc(=O)oc2c1	93.3	8.07	–
O=C(CN1CCOCC1)Nc1ccc(Oc2cc(=O)oc3ccccc23)cc1	97	34.6	–
C[C@H]1CCCN(CC(=O)Nc2ccc(Nc3cc(=O)oc4ccccc34)cc2F)C1	88.5	21.9	–
O=C(CN1CCCC1)Nc1ccc(Nc2cc(=O)oc3ccccc23)cc1	62	12.4	–
COc1ccc2c(Nc3ccc(NC(=O)CN4CCCCC4)cc3)cc(=O)oc2c1	41.3	74.5	–
COc1ccc2c(Oc3ccc(NC(=O)CN4CCC[C@H](C)C4)cc3)cc(=O)oc2c1	90.5	32.6	–
COc1ccc2c(Nc3ccc(NC(=O)CN4CCCC4)cc3)cc(=O)oc2c1	52	15.7	–
O=C(CN1CCCC1)Nc1ccc(Nc2cc(=O)oc3ccccc23)cc1F	74.3	33.3	–
COc1ccc2c(Oc3ccc(NC(=O)CN4CCOCC4)cc3)cc(=O)oc2c1	96.5	78.3	inhibition (NIH3T3): Active; inhibition (NRK-49F [3]): Dose-dependent effect; IC50 (NRK-49F [3]): 3.71 µM
O=C(CN1CCCCC1)Nc1ccc(Nc2cc(=O)oc3ccccc23)cc1	43.6	75.2	–
O=C(CN1CCOCC1)Nc1ccc(Nc2cc(=O)oc3ccccc23)cc1F	72.3	34.5	–
O=C(CN1CCCC1)Nc1ccc(Oc2cc(=O)oc3ccccc23)cc1	82.9	18.8	–
